Here are results for five compounds from US8299096B2, “Method for treating pulmonary diseases using rho kinase inhibitor compounds” (priority 2008, dated 2012).

“Also recorded” adds a separate entry of the source.

Series [1] has as its system rat tracheal rings pretreated with IL-1β and TNF-α or vehicle. As to the kind of experiment: Effect of inflammatory cytokines on tracheal relaxation. As to conditions: 300 nM carbachol. Here is the method: Male Sprague-Dawley rats weighing 301-325 gm were sacrificed by asphyxiation in a CO2 chamber. Trachea were excised, cleaned of connective tissue and cut into cylindrical segments of 2-3 mm length. Tissues were treated for 18 hours at 37° C. in F12 media with penicillin-streptomycin and 0.1% BSA alone or with 10 ng/ml IL-1β and 100 ng/ml TNF-α. Tissues were then washed free of cytokines with Krebs buffer. Contractile tensions were measured using an isometric force transducer (Grass Instruments) as described for Example 3 and signals were analyzed using specialized software (Chart v5.5, ADInstruments). Tissues were treated with 300 nM carbachol for 10 to 15 minutes to induce a contractile response. Test Compounds were added cumulatively to the bath every 30 minutes and reductions in tension were recorded. Basal tension was subtracted from all values and data were reported as a percentage of the maximal carbachol-induced contraction. Data were fit to the Hill equation using GraphPad Prism v5 software.

Series [2] has as its system ovalbumin-sensitized mice. In words: Bronchodilator assay in ovalbumin-sensitized mouse model of asthma (Penh). The class given is in vivo. To be noted: for Reduction in airway hyperresponsivness: oral doses. Here is the method:
Male BALB/c mice were ordered from Charles River Laboratories (Raleigh, N.C.). The animals were approximately 19 to 21 grams at time of receipt. Upon arrival, the animals were randomized into groups of five males per cage and assigned to a dosing group. Animals were quarantined for 7 days under test conditions. They were observed daily for general health status and ability to adapt to the water bottles.
Animals were sensitized on day 0 and 14 of study by an intraperitoneal injection with 20 μg of ovalbumin (ova) and 2.0 mg aluminum hydroxide (alum) which initiates the development of a specific T-helper (Th) cells type 2 resulting in asthmatic animals. One group of animals received an injection of saline to use as non-asthmatic control animals. All animals were challenged with aerosolized 1% ova once daily for 25 minutes on days 28, 29, and 30 (Zosky, et al. Respiratory Research, 2004; 5:15). Aerosol challenge consists of using an Aerogen Aeroneb nebulizer and controller with a particle size of 4-6 μm mass median aerodynamic diameter (MMAD) with a distribution of 400 μl per minute. This aerosol challenge is necessary to target the Th2-driven allergic inflammation in the lower airways.
The test compounds and the control vehicle were administered to animals on the day of airway hyperreactivity evaluation 30 minutes to 1 hour before the evaluation to determine the bronchodilator effects of the compounds according to the bronchodilator dosing paradigm (FIG. 3A). Compounds were administered p.o. (orally), i.p. (intraperitoneally) at 15 μMol/kg unless otherwise noted (Table 4). Alternatively, compounds were administered i.t. (intratracheally) at varying doses as shown (FIG. 3B). On day 32 of the experiment, airway hyperreactivity was evaluated by placing conscious, unrestrained animals in a whole body plethysmometer (Buxco Wilmington, N.C.) and exposing them to escalating doses of nebulized methacholine, a known bronchial constrictor which acts through the muscarinic receptors of the lungs, (doses: […]-50 mg/ml). Exposure to the methacholine doses consisted of a 3 minute period during which a nebulizer was aerosolizing the methacholine and an additional 3 minute period following the cessation of nebulization. Over this 6 minute period, the plethysmometer monitors and generates numerical values for all parameters of the breath pattern. Enhanced pause (Penh), a unitless index of airway hyperreactivity, is derived from the expiratory side of the respiratory waveform measured via the plethysmograph and is used as an indirect measure of airway resistance and hyperreactivity. […] Following the methacholine dose response, all animals were anesthetized, bled and euthanized.
Within each experiment, a mouse was given a single compound and exposed to increasing doses of methacholine [0 (baseline), 0.375, 0.75, 1.5, 3, 6, 12, 25, 50 mg/ml]. The Penh value at each of the dose levels of methacholine represents the 6-minute average response. Change from baseline (CFB) in Penh was calculated at each methacholine dose and the area under the curve (AUC) for these CFB values was calculated using the trapezoidal rule. This same approach was applied for each mouse across multiple experiments.
For statistical analyses, a linear mixed-effects model where the response was the log 10 transformed value of AUC described above was used. Data from equal experimental conditions across experiments performed on different days were pooled for statistical analysis and data reporting. The various compounds were compared adjusting for the log 10-transformed baseline value of Penh and the chamber (1 of 10) of the plethysmometer each mouse was contained in during an experiment. A random intercept for each experiment was assumed to account for possible similarities of the results obtained from a given experiment (i.e., as a “blocking effect”).
For Table 4 and Table 5, Penh values are reported as log 10 transformed AUC values. […]

Series [3] relates to ovalbumin-sensitized mice. As to the kind of experiment: Anti-inflammatory assay in ovalbumin-sensitized mouse model of asthma (BALF cells and cytokines). Type of series: in vivo. The text has this:
Mouse model of asthma via ovalbumin sensitization was created as described in Example 5. The anti-inflammatory dosing paradigm (FIG. 4) was utilized to evaluate the anti-inflammatory effects of experimental compounds. The anti-inflammatory dosing paradigm consists of dosing the animals once a day starting on day 27 and finishing on either day 30 or 31 (1 hr prior to the aerosolized ovalbumin challenges on days 28 to 30) but not on day 32 when hyper-reactivity evaluation occurs.
Bronchoalveolar lavage fluid (BALF) was collected by infusing 3.0 ml of saline with 10% fetal calf serum into the lungs via the trachea and then withdrawing the fluid. The total amount of cells/ml of BALF fluid was determined via manual cell count on hemocytometer. The BALF was centrifuged, supernatant removed and analyzed for cytokine concentrations as described below, and cell pellet reconstituted in 500 μL of fluid. Cytospin slides were prepared from the cell pellet using 100 μL of fluid and spinning samples for 5 minutes at 5000 rpms in a cytospin centrifuge. Following Hema3 stain, relative percentages of individual leukocytes were determined on a 200 cell count for each sample. The final concentration of individual leukocyte cell types per ml of BALF was determined by multiplication of the relative percentage of individual leukocytes with the total amount of cells/ml of BALF fluid.
The concentrations of cytokines in the BALF samples were determined using commercially available Bio-plex kits (Bio-Rad) for the detection of mouse IL-5, IL-13, and Eotaxin. The analysis of cytokine levels was measured using the Bio-Plex 200 (Bio-Rad) system according to the manufacturer's instructions.

Series [4] in a line: Rat oral pharmacokinetics (plasma). The class given is in vivo.
Experimental: Plasma (EDTA K2 anticoagulant) was collected from male, cannulated, CD Sprague Dawley rats to determine the pharmacokinetics of formulations containing compound inhibitors of Rho kinase. Each animal was dosed orally with a 4 ml/kg solution or suspension of each test compound in 10 mM acetate buffered saline, pH 4.5 at a final concentration range of 20-30 μmol/kg. Blood was collected at 0.25, 0.5, 1, 2, 4, 6, 8, and 24 hours. Plasma samples were assayed for the concentration of the test compound using an on-line, solid phase extraction LC/MS/MS analysis system.
Samples were analyzed on a QSTAR Elite, hybrid quadrupole time-of-flight mass spectrometer (Applied Biosystems, Framingham, Mass.) coupled with a Symbiosis Pharma integrated, on-line SPE-HPLC system (Spark Holland Inc., Plainsboro, N.J.). Analyst QS 2.0 software was used for instrument control, data acquisition and processing. […] Mobile Phase A consisted of 0.1% ammonium hydroxide in water and Mobile Phase B consisted of 0.1% formic acid in acetonitrile. Pharmacokinetic analyses were performed using WinNonlin software version 5.2 (Pharsight Corporation, Mountain View, Calif.).
The subject of series [5] is LPS-challenged mice. As to the kind of experiment: LPS-induced neutrophilia and cytokine production assay. The class given is in vivo, mouse.
Experimental: Male BALB/c mice, approximately 19 to 21 grams, were ordered from Charles River Laboratories (Raleigh, N.C.). All animals were challenged with aerosolized LPS (10 μg/ml) for 25 minutes on study day 0. LPS aerosol was generated using an Aerogen Aeroneb nebulizer and controller providing a flow of 400 μl/min and a particle size of 2-4 μm MMAD. Rolipram was administered i.p at 20 mg/kg. […] Four hours following LPS challenge, BALF was collected using a total of 3 ml of 0.9% sodium chloride containing 10% fetal calf serum. Total cell counts were determined using the Coulter Counter. For differential evaluations, BALF was centrifuged and cytospin slides prepared and stained with Hema3 stain. Manual leukocyte counts were then completed on 200 cells. The final concentration of individual leukocyte cell types per ml of BALF was determined by multiplication of the relative percentage of individual leukocytes with the total amount of cells/ml of BALF fluid. The concentration of IL-1β in the BALF samples was determined using commercially available Bio-plex kits (Bio-Rad). The analysis of cytokine levels was measured using the Bio-Plex 200 (Bio-Rad) system according to the manufacturer's instructions.
Series [6] concerns rat tracheal rings. As to the kind of experiment: Tracheal relaxation assay, carbachol precontracted rings. To be noted: Rattus norvegicus, read-out: IC50 Avg, tracheal ring relaxation.
Experimental: Trachea were excised, cleaned of connective tissue and cut into cylindrical segments of 2-3 mm length. Two stainless steel wires were guided through the lumen of the tracheal ring. One wire was fixed in the tissue bath and the other was connected to a force transducer via surgical silk. […] Indomethacin (1 μM), a cyclooxygenase inhibitor, was added to the Krebs buffer and was present throughout the experiments. Contractile tensions were measured using an isometric force transducer (Grass Instruments) and signals were analyzed using specialized software (Chart v5.5, ADInstruments). The preparations were allowed to equilibrate at a resting tension of 0.3 to 0.5 gm prior to two challenges with 60 mM KCl to assess tissue viability. After washing, tissues were treated with 1 μM carbachol for 10 to 15 minutes to induce a contractile response. Test Compounds were added cumulatively to the bath every 30 minutes and reductions in tension were recorded. Basal tension was subtracted from all values and data were reported as a percentage of the maximal carbachol-induced contraction. Data were fit to the Hill equation using GraphPad Prism v5 software.
Series [7] deals with human neutrophils. In words: Human neutrophil chemotaxis (fMLP-induced). Type of series: cell-based. To be noted: 1 h, read-out: Chemotaxis Avg IC50.
Experimental: Peripheral blood from healthy human volunteers was collected and the neutrophils were isolated by Ficoll-paque density centrifugation followed by dextran sedimentation and hypotonic lysis of the red blood cells. Neutrophil chemotaxis was assessed using a modified Boyden Chamber (Neuroprobe, 96-well) with a 3 μm pore polycarbonate membrane. The ability of the tested compounds to block chemotaxis induced by a 1 μM fMLP challenge during a one hour incubation at 37° C. with 5% CO2 was assessed in a dose response manner.
Series [8] deals with A-10 rat thoracic aorta cells. In words: PDGF-stimulated smooth muscle cell proliferation assay (BrdU). The class given is cell-based. As to conditions: 10 ng/mL PDGF, A-10 cells.
Experimental: Effects on cell proliferation were measured using a bromodeoxyuridine (BrdU) incorporation assay. […] Serum free media containing 0.1% BSA was added to the cells. 24 hours later the media was removed and replaced with warmed serum free media. […] Proliferation was then monitored using the BrdU Cell Proliferation Assay, HTS (Calbiochem cat. #HTS01). BrdU was allowed to incorporate into cells for 24 hours prior to the addition of fixative/denaturing solution and the fluorometric detection of incorporated BrdU using a BrdU antibody as per manufacturer's directions. Data are reported as a percent of the PDGF-stimulated BrdU incorporation.
For series [9], the system named is rat aorta. In words: Aortal relaxation assay, norepinephrine precontracted. As to conditions: 100 nM norepinephrine, 100 μM compound. Here is the method:
The effects of compounds to induce relaxation of pre-contracted rat pulmonary artery and rat aorta were determined. Male Sprague-Dawley rats weighing 301-325 gm were sacrificed by asphyxiation in a CO2 chamber. Pulmonary artery or aorta were excised, cleaned of connective tissue and cut into cylindrical segments of 2-3 mm length. The preparations were mounted in a tissue bath by tying two threads of surgical silk through the lumen of the vessel. One silk was used to anchor the tissue to a metal wire in the bath and the other silk was connected to a force transducer. Preparations were mounted in 5 ml water-jacketed organ baths (Radnoti Glass Technology) filled with Krebs buffer (95 mM NaCl, 5 mM KCl, 2.6 mM CaCl2, 1.2 mM MgSO4, 24.9 mM NaHCO3, 1.2 mM KH2PO4, 10 mM glucose) maintained at 37° C. and gassed with 95% O2 and 5% CO2. Contractile tensions were measured using an isometric force transducer (Grass Instruments) and signals were analyzed using specialized software (Chart v5.5, ADInstruments). […] For pulmonary artery, compounds were added cumulatively to the bath every 30 minutes and reductions in tension were recorded. […] For aorta, a single dose of compound was added and reductions in tension were recorded.

For series [10], the system named is ovalbumin-sensitized mice. In words: Prevention of airway hyperreactivity development, anti-inflammatory dosing paradigm (Penh). The class given is in vivo, mouse. As to conditions: oral, 15 μMol/kg once a day during days 27 to 31.
For series [11], the system named is human eosinophils. As to the kind of experiment: Human eosinophil chemotaxis (eotaxin-induced). To be noted: 1 nM eotaxin, one hour. Type of series: cell-based. From the text: Human Eosinophil Isolation: Peripheral blood from healthy human volunteers was collected and the PMNs separated via Ficoll-paque density centrifugation followed by hypotonic lysis of the red blood cells. Subsequently, the human eosinophils were isolated from the cell suspension via StemCell Technologies Human Eosinophil Enrichment kit (Cat. No 19256) according to the manufacturer's recommendations. Briefly, unwanted cells were specifically labeled with dextran-coated magnetic nanoparticles using bispecific Tetrameric Antibody Complexes (TAC) directed against cell surface antigens on human blood cells: […] The unwanted cells are then separated from the unlabelled eosinophils using the EasySep® magnetic isolation procedure. In Vitro Chemotaxis: […]

Series [12] has as its system murine eosinophils. As to the kind of experiment: Murine eosinophil chemotaxis (eotaxin-induced). To be noted: 10 nM eotaxin, one hour. The class given is cell-based, mouse. Here is the method:
Mouse Eosinophil Isolation: Bronchoalveolar lavage was collected from ovalbumin sensitized and challenged mice in a volume of 2.5 mL lavage buffer. The lavage buffer was 0.9% saline with 10% fetal bovine serum. The pooled lavages were maintained on ice until use. The murine eosinophils were isolated using MACS cell separation (Miltenyi Biotech) by depletion of B cells and T cells by positive selection following incubation with antibody conjugated magnetic beads specific for CD45-R (B220) and CD90 (Thy 1.2), which bind B cells and T cells, respectively.
In Vitro Chemotaxis: Eosinophil chemotaxis was assessed using a modified Boyden Chamber (Neuroprobe, 96-well) with a 5 μm pore membrane. The ability of the tested compounds to block chemotaxis induced by a 10 nM eotaxin challenge (mouse) or 1 nM eotaxin challenge (human) during one hour incubation at 37° C. with 5% CO2 was assessed. Chemotaxis was quantified via microscopy by counting the number of migrated cells in at least 3 view fields per treatment.

Series [13] is described as follows: Compound plasma concentrations in mice at 15 min post administration. To be noted: mouse plasma, 15 minutes, oral. Type of series: in vivo, mouse.
Experimental: Additionally, compound concentrations were determined in the plasma and lungs of male, ovalbumin-sensitized, Balb/c mice from a murine model of asthma. Test compounds were formulated in water or 1% polysorbate 80 and dosed at 15 μmol/kg for intraperitoneal (IP) or oral (PO) administration or formulated for intratracheal (IT) administration and dosed at 5 μmol/kg, which directly targets the lungs. Following completion of the in vivo study, mice were euthanized and blood and plasma collected approximately 2.5-3 hours post administration of test compound for bronchodialator (BD) studies and 24 hours post administration for anti-inflamatory (AI) studies. Lungs were homogenized in Matrix A lysing tubes using a FastPrep 24 tissue and cell homogenizer (MP Biomedicals, Solon, Ohio). Both plasma samples and lung extracts were assayed for compound concentrations using an on-line, solid phase extraction LC/MS/MS system.
Setting [14] is: rat, oral, 20-30 μmol/kg, plasma, mean n = 3.
Where [15] appears, read: 15 μmol/kg/oral on days 27 to 31.

`CS(=O)(=O)Nc1cccc(CN2CCC[C@H](Nc3ccc4[nH]ncc4c3)C2)c1` [Compound 1.091]: the “Potency in cytokine-pretreated versus vehicle-pretreated tissues” value in series [1] was “slightly more potent in cytokine-pretreated tissues”. Further, the “Relaxation of tracheal rings from vehicle-pretreated and cytokine-pretreated tissues” value in [1] (10 ng/ml IL-1β and 100 ng/ml TNF-α, 18 hours) was “fully efficacious”. Besides, the “Reduction in airway hyperresponsiveness” value in series [2] (i.p. route of administration, compared to oral dosing) is on record as “enhanced reduction”. For the same compound, the Bronchodilatory response entry in series [2] (intratracheal administration) was “robust bronchodilatory response”. Also, in [2], the “Reduction in airway hyperresponsivness” value is recorded as “did not yield a significant reduction”. Also, the “Eosinophils in BALF” value in series [3] (dosed i.t. to day 30, anti-inflammatory dosing paradigm) was “reduction of eosinophils”. In addition, the Oral bioavailability result in series [4] (oral dosing) is recorded as “poor”. Further, in [4] (setting [14]), the “AUC (0-last)” value is on record as “below the level of quantification” and the Cmax result is listed as “below the level of quantification”. Also, in series [5] (dosed intratracheally), the “Efficacy on neutrophilia compared to rolipram dosed i.p.” value was “similar”. Also, in [5] (intratracheal administration, LPS-challenged mice), the “IL-1β levels in BALF” value is “reduction”. For the same compound, in [5] (intratracheal dosing one hour prior to LPS challenge, mice), the “LPS-induced pulmonary neutrophilia (BALF)” value is “significant reduction; also recorded: dose-dependent inhibition”.

Consider `Cc1cncc2cccc(S(=O)(=O)N3CCCNC[C@@H]3C)c12` [Compound H-1152, 4-methyl-5-(2-methyl-[1,4]diazepan-1-sulfonyl)isoquinoline], for which the half-inhibitory concentration (IC50) was 164 nM in series [6] and 4350 nM in series [7].

Consider `CSc1ccc(CN2CC[C@@H](Nc3cccc4cnccc34)C2)cc1` [Compound 2.026], for which the “Percent of PDGF Induced Proliferation at 1 μM Avg” value in series [8] (1 μM) is 74.5%. In addition, the “Percent of PDGF Induced Proliferation at 10 μM Avg” value in [8] (10 μM) is recorded as 52.0%.

As to `OCCOc1cccc(CN2CC[C@@H](Nc3cccc4cnccc34)C2)c1` [Compound 2.039], the “Norepinephrine-induced tension of aortal ring” value in series [9] is recorded as “fully reversed”.

`CS(=O)(=O)Nc1cccc(CN2CC[C@@H](Nc3cccc4cnccc34)C2)c1` [Compound 2.038]: the “Reduction in airway hyperresponsivness” value in series [2] is recorded as “statistically significant reduction”. In addition, in [3] (setting [15]), the “Eotaxin level in BALF” value was “reduced levels”, the “IL-5 level in BALF” value is “reduced levels” and the “IL-13 level in BALF” value is “reduced levels”. Besides, in [3] (dosed orally to day 31, anti-inflammatory dosing paradigm), the “Airway eosinophil infiltration (eosinophils per ml of BALF)” value was “reduced”. For the same compound, in series [10], the “Prevention of airway hyperreactivity to metacholine on Day 32” value is “prevention of airway hyperreactivity”. Moreover, the “Eotaxin-induced chemotactic response of human eosinophils” value in [11] is “inhibited”. Also, the “Eotaxin-induced chemotactic response of murine eosinophils” value in series [12] is “inhibited”. Further, the “Detection in mouse plasma 15 minutes after oral dosing” value in series [13] is listed as “readily detectable”.

As a reminder, the IC50 is the concentration that inhibits the measured activity by half.
